Compound in assay [1]: COc1ccc(-c2cc3c(C)nc(N)nc3n([C@H]3CC[C@H](OCCO)CC3)c2=O)cn1
Kind of assay: surviving fraction relative to DMSO-only wells; higher = less growth inhibition. As to conditions: exposure time: 5 days. An outline of the steps: (§1)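 Inhibitors at 0.5, 1, 5, 10, 50, 100, 500 and 1000 nM were applied continuously for five days to tumour cell lines seeded in log phase at 250–500 cells per well in 384-well plates 24 hours earlier. Viability was measured by CellTiter-Glo luminescence and expressed as surviving fraction relative to the median of DMSO-only wells. Luminescence was taken after 10 minutes at room temperature.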

Compound in assay [2]: CCc1cc(Nc2nccc(-c3c(-c4ccc(OC)c(C(=O)Nc5c(F)cccc5F)c4)nc4ccccn34)n2)c(OC)cc1N1CCC(N2CCN(S(C)(=O)=O)CC2)CC1
The assay is described as above. As to conditions: exposure time: 5 days. In outline: as §1

± gives the standard deviation of the averaged measurements.

On to SG27 HEADNECK, for which the surviving fraction in assay [1] (0.5 nM) is 1.03 ± 0.11; in assay [1] (1 nM) it was 1.02 ± 0.12; in assay [1] (5 nM), 0.945 ± 0.042; in assay [1] (10 nM), 0.935 ± 0.11; in assay [1] (50 nM) it was 0.834 ± 0.21; in assay [1] (100 nM) it was 0.703 ± 0.048. The surviving fraction came to 0.424 ± 0.0087 in assay [1] (500 nM); 0.357 ± 0.039 in assay [1] (1000 nM); 1.04 ± 0.066 in assay [2] (0.5 nM); 0.999 ± 0.11 in assay [2] (1 nM); 1.06 ± 0.065 in assay [2] (5 nM); 1.13 ± 0.057 in assay [2] (10 nM). Moreover, the surviving fraction in assay [2] (50 nM) amounted to 1.05 ± 0.065; in assay [2] (100 nM), 1.17 ± 0.19; in assay [2] (500 nM), 1.2 ± 0.034; in assay [2] (1000 nM), 1.15 ± 0.071.
For the test system SYO1 SYNOVIAL, the surviving fraction in assay [1] (0.5 nM) came out at 0.961 ± 0.013; in assay [1] (1 nM), 0.912 ± 0.021; in assay [1] (5 nM), 0.895 ± 0.061; in assay [1] (10 nM) it was 0.825 ± 0.041; in assay [1] (50 nM), 0.557 ± 0.0083; in assay [1] (100 nM), 0.386 ± 0.035. Also, the surviving fraction amounted to 0.118 ± 0.028 in assay [1] (500 nM); 0.0698 ± 0.019 in assay [1] (1000 nM); 0.945 ± 0.041 in assay [2] (0.5 nM); 0.992 ± 0.031 in assay [2] (1 nM); 0.948 ± 0.048 in assay [2] (5 nM); 0.945 ± 0.045 in assay [2] (10 nM). Besides, the surviving fraction in assay [2] (50 nM) was 0.969 ± 0.034; in assay [2] (100 nM) it was 1.02 ± 0.044; in assay [2] (500 nM), 0.949 ± 0.03; in assay [2] (1000 nM), 0.895 ± 0.022.
Turning to HUO3N1 BONE, the surviving fraction stood at 0.986 ± 0.036 in assay [1] (0.5 nM); 0.981 ± 0.039 in assay [1] (1 nM); 0.924 ± 0.061 in assay [1] (5 nM); 0.855 ± 0.028 in assay [1] (10 nM); 0.614 ± 0.013 in assay [1] (50 nM); 0.494 ± 0.026 in assay [1] (100 nM). Besides, the surviving fraction in assay [1] (500 nM) turned out to be 0.242 ± 0.012; in assay [1] (1000 nM) it was 0.188 ± 0.003; in assay [2] (0.5 nM) it was 0.94 ± 0.044; in assay [2] (1 nM), 0.986 ± 0.032; in assay [2] (5 nM) it was 1 ± 0.028; in assay [2] (10 nM), 1.05 ± 0.06. Further, the surviving fraction came out at 1.01 ± 0.011 in assay [2] (50 nM), 0.995 ± 0.052 in assay [2] (100 nM), 0.947 ± 0.031 in assay [2] (500 nM) and 0.908 ± 0.024 in assay [2] (1000 nM).
H23 LUNG: the surviving fraction turned out to be 0.989 ± 0.016 in assay [1] (0.5 nM); 0.98 ± 0.078 in assay [1] (1 nM); 0.872 ± 0.063 in assay [1] (5 nM); 0.731 ± 0.042 in assay [1] (10 nM); 0.422 ± 0.018 in assay [1] (50 nM); 0.265 ± 0.028 in assay [1] (100 nM). In addition, the surviving fraction in assay [1] (500 nM) worked out at 0.127 ± 0.0091; in assay [1] (1000 nM), 0.0933 ± 0.005; in assay [2] (0.5 nM) it was 0.939 ± 0.042; in assay [2] (1 nM) it was 1.02 ± 0.032; in assay [2] (5 nM), 0.973 ± 0.012; in assay [2] (10 nM), 1.06 ± 0.078. For the same test system, the surviving fraction in assay [2] (50 nM) was 0.997 ± 0.014; in assay [2] (100 nM) it was 1.02 ± 0.038; in assay [2] (500 nM), 1.02 ± 0.029; in assay [2] (1000 nM), 1 ± 0.032.
With ASKA SYNOVIAL, the surviving fraction is 0.923 ± 0.037 in assay [1] (0.5 nM); 0.896 ± 0.064 in assay [1] (1 nM); 0.878 ± 0.076 in assay [1] (5 nM); 0.776 ± 0.054 in assay [1] (10 nM); 0.462 ± 0.019 in assay [1] (50 nM); 0.366 ± 0.025 in assay [1] (100 nM). Also, the surviving fraction came to 0.187 ± 0.011 in assay [1] (500 nM); 0.229 ± 0.026 in assay [1] (1000 nM); 1.16 ± 0.063 in assay [2] (0.5 nM); 1.17 ± 0.057 in assay [2] (1 nM); 1.27 ± 0.088 in assay [2] (5 nM); 1.16 ± 0.1 in assay [2] (10 nM). For the same test system, the surviving fraction in assay [2] (50 nM) turned out to be 1.19 ± 0.017; in assay [2] (100 nM) it was 1.2 ± 0.03; in assay [2] (500 nM), 1.18 ± 0.03; in assay [2] (1000 nM), 1.04 ± 0.094.

The record behind these values is the supplement of paper PMC6045584.
